Measured values published in ChEMBL document CHEMBL5131570, “Discovery of Potent Small-Molecule USP8 Inhibitors for the Treatment of Breast Cancer through Regulating ERα Expression” (J Med Chem, 2022).

Experiments:
[1] = Toxicity in BALB/c mouse xenografted with human MCF7 cells assessed as effect on aspartate aminotransferase level at 5 to 20 mg/kg, […] every other day measured after 14 days; assay type: organism-based; conditions: in vivo, 336 h, dose 5-20 mg/kg, time 14 day
[2] = Toxicity in BALB/c mouse xenografted with human MCF7 cells assessed as effect on kidney at 5 to 20 mg/kg, […] every other day measured after 14 days by hematoxylin and eosin staining based analysis; assay type: organism-based; conditions: in vivo, 336 h, dose 5-20 mg/kg, time 14 day

Compound: Cc1n[nH]c(C)c1Oc1c(O)cc(O)c2c(=O)cc(-c3ccc(N4CCN(c5ccccn5)CC4)cc3)oc12
- Activity [1]: Non-Toxic
- Activity [2]: Non-Toxic
